Test results taken from ChEMBL document CHEMBL5291721, “A preclinical secondary pharmacology resource illuminates target-adverse drug reaction associations of marketed drugs” (Nat Commun, 2023).

Legend:
[1] = target: Vasopressin V1a receptor (Homo sapiens, UniProt P37288)
[2] = target: T1, B2 bradykinin receptor (Homo sapiens, UniProt P30411)
T1 sequence (P30411 whole entry): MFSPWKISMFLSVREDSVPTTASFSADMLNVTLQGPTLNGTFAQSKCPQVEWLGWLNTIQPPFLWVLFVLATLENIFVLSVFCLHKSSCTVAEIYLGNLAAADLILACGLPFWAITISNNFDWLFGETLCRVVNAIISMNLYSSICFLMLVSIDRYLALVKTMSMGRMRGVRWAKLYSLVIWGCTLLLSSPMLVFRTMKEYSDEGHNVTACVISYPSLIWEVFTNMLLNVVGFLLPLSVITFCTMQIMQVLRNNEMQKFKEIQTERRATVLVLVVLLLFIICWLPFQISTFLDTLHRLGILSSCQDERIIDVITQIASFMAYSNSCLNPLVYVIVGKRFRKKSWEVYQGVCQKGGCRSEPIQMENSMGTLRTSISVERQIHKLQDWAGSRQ

[3] = target: T2, Muscarinic acetylcholine receptor M2 (Homo sapiens, UniProt P08172); format: functional, cell-based
T2 sequence (P08172 whole entry): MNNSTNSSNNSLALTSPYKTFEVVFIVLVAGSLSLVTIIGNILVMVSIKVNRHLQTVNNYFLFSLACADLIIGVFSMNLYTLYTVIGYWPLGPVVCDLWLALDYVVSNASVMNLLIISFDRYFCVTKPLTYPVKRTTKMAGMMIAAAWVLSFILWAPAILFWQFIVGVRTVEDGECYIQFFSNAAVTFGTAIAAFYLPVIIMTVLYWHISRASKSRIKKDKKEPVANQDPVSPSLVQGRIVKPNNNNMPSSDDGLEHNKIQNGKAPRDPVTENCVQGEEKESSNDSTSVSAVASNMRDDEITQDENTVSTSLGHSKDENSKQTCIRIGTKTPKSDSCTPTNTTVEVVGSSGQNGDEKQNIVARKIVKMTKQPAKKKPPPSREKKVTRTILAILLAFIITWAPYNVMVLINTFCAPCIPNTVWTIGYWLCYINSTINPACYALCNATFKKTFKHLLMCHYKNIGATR

[4] = target: Glutamate receptor ionotropic, NMDA 1 (Rattus norvegicus, UniProt P35439)
[5] = target: Sodium-dependent serotonin transporter (Homo sapiens, UniProt P31645)
[6] = target: T3, Alpha-1A adrenergic receptor (Homo sapiens, UniProt P35348); format: functional, cell-based
T3 sequence (P35348 whole entry): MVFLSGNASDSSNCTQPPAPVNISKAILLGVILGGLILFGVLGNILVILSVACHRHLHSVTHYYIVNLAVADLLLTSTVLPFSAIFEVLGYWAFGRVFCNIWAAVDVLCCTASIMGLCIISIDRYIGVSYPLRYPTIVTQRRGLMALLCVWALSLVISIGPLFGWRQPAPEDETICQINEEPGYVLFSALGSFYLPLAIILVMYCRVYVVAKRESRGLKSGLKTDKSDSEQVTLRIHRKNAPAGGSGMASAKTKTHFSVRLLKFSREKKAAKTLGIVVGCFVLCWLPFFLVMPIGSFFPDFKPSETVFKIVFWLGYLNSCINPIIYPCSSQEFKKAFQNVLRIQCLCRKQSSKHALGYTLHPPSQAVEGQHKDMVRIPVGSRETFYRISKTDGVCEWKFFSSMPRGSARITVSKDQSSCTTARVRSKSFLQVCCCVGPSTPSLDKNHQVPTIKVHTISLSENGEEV

[7] = target: T4, 5-hydroxytryptamine receptor 1A (Homo sapiens, UniProt P08908)
T4 sequence (P08908 whole entry): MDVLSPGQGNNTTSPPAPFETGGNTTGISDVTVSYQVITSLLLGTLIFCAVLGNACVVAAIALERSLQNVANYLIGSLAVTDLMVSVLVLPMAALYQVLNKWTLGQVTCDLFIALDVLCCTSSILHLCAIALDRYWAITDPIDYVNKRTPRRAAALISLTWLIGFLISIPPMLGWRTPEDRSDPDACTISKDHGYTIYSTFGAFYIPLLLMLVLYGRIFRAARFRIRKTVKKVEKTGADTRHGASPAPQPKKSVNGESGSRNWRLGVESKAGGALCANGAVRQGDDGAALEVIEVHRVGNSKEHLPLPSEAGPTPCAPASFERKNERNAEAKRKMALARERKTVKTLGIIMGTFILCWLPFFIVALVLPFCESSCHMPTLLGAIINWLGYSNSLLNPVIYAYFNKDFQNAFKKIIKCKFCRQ

[8] = target: T5, Amine oxidase [flavin-containing] A (Homo sapiens, UniProt P21397); format: functional
T5 sequence (P21397 whole entry): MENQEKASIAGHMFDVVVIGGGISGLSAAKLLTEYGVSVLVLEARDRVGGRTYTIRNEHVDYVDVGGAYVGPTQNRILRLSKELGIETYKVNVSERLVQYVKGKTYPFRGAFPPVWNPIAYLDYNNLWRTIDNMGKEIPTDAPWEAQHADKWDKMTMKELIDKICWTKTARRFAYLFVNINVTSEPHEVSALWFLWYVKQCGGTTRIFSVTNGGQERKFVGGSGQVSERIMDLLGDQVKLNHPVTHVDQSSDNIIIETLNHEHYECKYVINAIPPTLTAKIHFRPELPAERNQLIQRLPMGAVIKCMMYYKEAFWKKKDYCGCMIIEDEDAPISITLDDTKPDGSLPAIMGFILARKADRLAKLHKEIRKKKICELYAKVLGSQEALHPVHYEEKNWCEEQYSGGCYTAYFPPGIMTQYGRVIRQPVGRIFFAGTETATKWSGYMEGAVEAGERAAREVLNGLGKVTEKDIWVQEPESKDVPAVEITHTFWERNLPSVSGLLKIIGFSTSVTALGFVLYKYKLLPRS

[9] = target: Prothrombin (Homo sapiens, UniProt P00734); format: functional
Also: assay procedure not described here.

Sequence of Vasopressin V1a receptor (P37288 whole entry): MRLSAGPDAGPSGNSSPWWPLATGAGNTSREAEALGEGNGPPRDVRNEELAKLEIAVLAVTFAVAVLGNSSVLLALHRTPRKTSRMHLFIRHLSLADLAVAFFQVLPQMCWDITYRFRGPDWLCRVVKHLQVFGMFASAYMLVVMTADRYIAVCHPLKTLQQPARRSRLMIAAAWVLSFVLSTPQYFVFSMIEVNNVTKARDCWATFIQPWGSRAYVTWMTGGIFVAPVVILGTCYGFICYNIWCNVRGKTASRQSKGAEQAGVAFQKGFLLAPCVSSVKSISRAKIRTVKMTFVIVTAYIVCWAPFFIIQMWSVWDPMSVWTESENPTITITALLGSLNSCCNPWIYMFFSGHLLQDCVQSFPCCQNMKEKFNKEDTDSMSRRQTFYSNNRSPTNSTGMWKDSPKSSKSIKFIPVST
Sequence of Sodium-dependent serotonin transporter (P31645 whole entry): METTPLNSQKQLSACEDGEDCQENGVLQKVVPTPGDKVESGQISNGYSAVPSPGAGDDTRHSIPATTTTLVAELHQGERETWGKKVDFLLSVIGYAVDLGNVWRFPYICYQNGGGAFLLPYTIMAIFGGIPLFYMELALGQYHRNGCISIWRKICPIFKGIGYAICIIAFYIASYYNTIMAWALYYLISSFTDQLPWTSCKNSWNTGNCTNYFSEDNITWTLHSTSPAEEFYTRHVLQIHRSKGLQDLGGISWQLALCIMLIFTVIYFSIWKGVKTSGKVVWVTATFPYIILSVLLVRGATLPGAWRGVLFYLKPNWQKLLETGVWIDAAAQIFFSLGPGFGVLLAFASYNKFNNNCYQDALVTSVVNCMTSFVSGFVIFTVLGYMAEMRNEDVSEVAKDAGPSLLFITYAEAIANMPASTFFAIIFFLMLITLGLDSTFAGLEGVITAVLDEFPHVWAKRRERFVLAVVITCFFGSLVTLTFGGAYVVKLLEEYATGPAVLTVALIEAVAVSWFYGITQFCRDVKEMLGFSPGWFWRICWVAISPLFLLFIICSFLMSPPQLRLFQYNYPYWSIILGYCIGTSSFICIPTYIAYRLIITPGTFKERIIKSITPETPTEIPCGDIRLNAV

| Structure (SMILES) | AC50 [1] [µM] | AC50 [2] [µM] | AC50 [3] [µM] | AC50 [4] [µM] | AC50 [5] [µM] | AC50 [6] [µM] | AC50 [7] [µM] | AC50 [8] [µM] | AC50 [9] [µM] |
| --- | --- | --- | --- | --- | --- | --- | --- | --- | --- |
| CO/N=C(\C(=O)N[C@@H]1C(=O)N2C(C(=O)[O-])=C(C[N+]3(C)CCCC3)CS[C@H]12)c1csc(N)n1 | > 300 | > 30 | > 300 | > 30 | > 300 | – | – | – | – |
| COC(=O)N[C@H](C(=O)N1CCC[C@H]1c1nc(-c2ccc(-c3ccc(-c4c[nH]c([C@@H]5CCCN5C(=O)[C@@H](NC(=O)OC)C(C)C)n4)cc3)cc2)c[nH]1)C(C)C | > 30 | > 30 | > 30 | > 30 | > 30 | – | – | – | – |
| CCOC(=O)[C@H](CCc1ccccc1)N[C@@H](C)C(=O)N1CCC[C@H]1C(=O)O | > 10 | > 30 | > 10 | > 10 | – | – | – | – | – |
| CC(=O)c1ccc2c(c1)N(CCCN1CCN(CCO)CC1)c1ccccc1S2 [ACETOPHENAZINE] | > 30 | – | > 10 | – | 17 | – | – | – | – |
| CC(N)Cc1ccccc1 (stereo unspecified) [AMPHETAMINE] | > 30 | > 30 | > 30 | > 10 | – | – | – | – | – |
| COC(=O)N[C@H](C(=O)N[C@@H](Cc1ccccc1)[C@@H](O)CN(Cc1ccc(-c2ccccn2)cc1)NC(=O)[C@@H](NC(=O)OC)C(C)(C)C)C(C)(C)C [ATAZANAVIR] | > 30 | > 30 | > 10 | > 10 | > 30 | – | – | – | – |
| CN1CCCC(n2nc(Cc3ccc(Cl)cc3)c3ccccc3c2=O)CC1 (stereo unspecified) [AZELASTINE] | > 30 | – | – | – | 3.5 | – | – | – | – |
| CC(C)NCC(O)COc1ccc(COCCOC(C)C)cc1 (stereo unspecified) [BISOPROLOL] | > 10 | > 30 | > 10 | > 10 | > 10 | – | – | – | – |
| CCC[C@@H]1C[C@@H](C(=O)N[C@@H]([C@H]2O[C@H](SC)[C@H](O)[C@@H](O)[C@H]2O)[C@H](C)Cl)N(C)C1 [CLINDAMYCIN] | > 10 | > 30 | > 10 | > 10 | – | – | – | – | – |
| CN(C)CCCN1c2ccccc2CCc2ccc(Cl)cc21 [CLOMIPRAMINE] | – | – | > 10 | – | – | > 30 | 5.33 | > 30 | – |
| CC(=O)OCC(=O)[C@@]1(O)CC[C@H]2[C@@H]3CCC4=CC(=O)CC[C@]4(C)[C@H]3C(=O)C[C@@]21C [CORTISONE ACETATE] | – | – | – | > 30 | – | – | – | – | > 30 |
| O=C(O)c1cc(-c2ccc(F)cc2F)ccc1O [DIFLUNISAL] | – | > 10 | > 10 | > 10 | – | – | – | – | – |
| CCC(=O)O[C@H]1[C@H](O[C@@H]2[C@@H](C)[C@H](O[C@H]3C[C@@](C)(OC)[C@@H](O)[C@H](C)O3)[C@@H](C)C(=O)O[C@H](CC)[C@@](C)(O)[C@H](O)[C@@H](C)C(=O)[C@H](C)C[C@@]2(C)O)O[C@H](C)C[C@@H]1N(C)C [ERYTHROMYCIN PROPIONATE] | – | – | – | – | – | – | 15.1 | > 30 | > 30 |
| C#C[C@]1(O)CC[C@H]2[C@@H]3CCc4cc(O)ccc4[C@H]3CC[C@@]21C [ETHINYL ESTRADIOL] | > 10 | > 30 | > 10 | > 10 | – | > 30 | > 30 | > 30 | > 30 |
| NC(N)=Nc1nc(CSCCC(N)=NS(N)(=O)=O)cs1 [FAMOTIDINE] | > 10 | > 30 | > 10 | > 10 | – | – | – | – | – |
| NS(=O)(=O)c1cc2c(cc1Cl)NCNS2(=O)=O [HYDROCHLOROTHIAZIDE] | > 10 | > 30 | > 10 | > 10 | – | – | – | – | – |

| Structure (SMILES) | AC50 [1] [µM] | AC50 [2] [µM] | AC50 [3] [µM] | AC50 [4] [µM] | AC50 [5] [µM] | AC50 [6] [µM] | AC50 [7] [µM] | AC50 [8] [µM] | AC50 [9] [µM] |
| --- | --- | --- | --- | --- | --- | --- | --- | --- | --- |
| CC(C)Cc1ccc(CC(=O)O)cc1 [IBUFENAC] | > 30 | – | > 30 | – | > 30 | – | – | – | – |
| CC(C)NNC(=O)c1ccncc1 [IPRONIAZID] | – | – | > 30 | – | – | – | – | – | – |
| NC[C@H]1O[C@H](O[C@H]2[C@H](O)[C@@H](O[C@H]3O[C@H](CO)[C@@H](O)[C@H](N)[C@H]3O)[C@H](N)C[C@@H]2N)[C@H](O)[C@@H](O)[C@@H]1O [KANAMYCIN] | – | > 10 | > 10 | > 10 | – | – | – | – | – |
| C[C@H]1C[C@@H]2[C@H]([C@@H](O)C[C@@]3(C)[C@H]2CC[C@]3(O)C(=O)CO)[C@@]2(C)C=CC(=O)C=C12 [METHYLPREDNISOLONE] | – | > 10 | > 10 | > 10 | – | – | – | – | – |
| CCN(CC)CCNC(=O)c1cc(Cl)c(N)cc1OC [METOCLOPRAMIDE] | > 10 | > 30 | – | > 10 | – | – | – | – | – |
| CC(C)(C(=O)c1cccnc1)c1cccnc1 [METYRAPONE] | – | > 10 | > 10 | > 10 | – | – | – | – | – |
| Cc1cccc(C)c1OCC(C)N (stereo unspecified) [MEXILETINE] | – | > 30 | > 30 | – | – | – | – | – | – |
| NC(=O)c1ncn([C@@H]2O[C@H](CO)[C@@H](O)[C@H]2O)c1O [MIZORIBINE] | > 30 | > 30 | – | > 30 | > 30 | – | – | – | – |
| CCc1nn(CCCN2CCN(c3cccc(Cl)c3)CC2)c(=O)n1CCOc1ccccc1 [NEFAZODONE] | > 10 | > 30 | – | > 10 | – | – | – | – | – |
| COC(=O)C1=C(C)NC(C)=C(C(=O)OCC(C)C)C1c1ccccc1[N+](=O)[O-] (stereo unspecified) [NISOLDIPINE] | – | > 10 | > 10 | > 10 | – | – | – | – | – |
| NC1=NC(=O)C(c2ccccc2)O1 (stereo unspecified) [PEMOLINE] | – | > 30 | > 10 | > 10 | – | – | – | – | – |
| CC[C@H](C)C(=O)O[C@H]1C[C@H](O)C=C2C=C[C@H](C)[C@H](CC[C@@H](O)C[C@@H](O)CC(=O)O)[C@H]21 [PRAVASTATIN] | – | – | > 30 | > 10 | – | – | – | – | – |
| Cc1cc2c(cc1CC(=O)c1sccc1S(=O)(=O)Nc1onc(C)c1Cl)OCO2 [SITAXENTAN] | – | – | – | – | – | – | > 30 | > 30 | > 30 |
| CNC(=O)c1cc(Oc2ccc(NC(=O)Nc3ccc(Cl)c(C(F)(F)F)c3)cc2)ccn1 [SORAFENIB] | > 30 | > 30 | > 30 | > 30 | – | – | – | – | – |
| NC[C@H]1CC[C@H](C(=O)O)CC1 [TRANEXAMIC ACID] | – | > 10 | > 10 | > 10 | – | – | – | – | – |
| OCc1cc([C@@H](O)CNCCCCCCOCCOCc2c(Cl)cccc2Cl)ccc1O [VILANTEROL] | > 30 | – | > 30 | – | 2.8 | – | – | – | – |
